Source: US12325646B2, “Fertigation water treatment” (UNIVERSITY OF GUELPH, priority 2019, dated 2025)
Values after ≈ are worked out from the molar mass of the structure shown. Values joined by “and” are separate entries in the source; they are usually repeats but may differ in a detail not shown here. Identical values can stand only once. “Also recorded” adds a separate entry of the source. Like-named read-outs stand apart in the source and are kept apart here.

Key:
Lemna minor [1] = assay: Lemna minor bioassay (dose-response, 7-day growth); assay type: in vivo; conditions: for EC50: 168 h, read-out: EC50 dose from dose-response analysis of Lemna minor growth
Text: A sterile culture of Lemna minor was obtained from the laboratory of Dr. Ryan Prosser (University of Guelph, School of Environmental Science). The culture was transferred to a 1 L Erlenmeyer flask containing a ½ strength Hoagland solution. The cultures were transferred to a growth chamber and were left for a growing period of 7 days. After the growth period, the Erlenmeyer flasks were brought to the lab to use the healthy plants for bioassay and water treatment experiments.
The temperature and humidity sensors were built in house by the Controlled Environment Systems Research Facility (CESRF) at the University of Guelph. The growth chamber conditions for humidity and temperature were recorded using an Acer Aspire 7750 laptop (P7YEO, Acer, Taiwan) and using the Termite software for data logging (version 3.4). The temperature was maintained at 25.68±0.02° C. and the relative humidity was 38.34±0.05%. Lumigrow pro 325 LED lights (LU60001, Lumigrow, USA) were used at a 80:10:10 ratio of Red:Blue:White as overhead lighting for plants (FIGS. 38A & 38B). Furthermore, a grid system inside the growth chamber with 36 grid boxes were used to place Erlenmeyer flasks in a completely randomized design (FIG. 38C). Each ‘grid’ was measured for photosynthetically active radiation (PAR) using a modular spectrometer (USB2000+, Ocean Optics Inc., USA). This allowed to account for random differences attributed to light intensity within the growth chamber. A heat map is generated with this information and in the middle of the ‘grid box’ there was a maximum intensity of […] (FIG. 39).
The analysis of dose-response curves for affecting the growth of Lemna minor was determined using the ‘drc’ package (v. 3.0-1, Christian Ritz, 2016) in the statistical program RStudio (v. 1.0.153, RStudio Inc., USA). The program was used to determine the EC 50 for each measured parameter for plant health and reproduction of the number of plants, number of fronds, and the dry weights of plants contained in each flask.
All solutions were treated with the four different water treatment methods and 75 mL of effluent solution was collected and added in 250 mL Erlenmeyer flasks. Negative control samples only contained 75 mL of deionized water, while all other treatments (positive control, Ozone, AOP, DSA, and BDD) contained 75 mL of the treated and non-treated solution. In a separate 3-litre beaker, a full-strength Hoagland solution was prepared and mixed with a magnetic stirrer (220T, Fisher Scientific, Canada). For each of the Erlenmeyer flasks containing the treated solutions, 75 mL of the Hoagland solution was added into each flask. […] Lemna minor that were previously cultured and acclimated to the ‘Grid box’ were then added to each flask. Two Lemna minor plants with three fronds each were added to flasks for the experiment. All 5 treatments contained 3 Erlenmeyer flasks giving a total of […] and the experiment was performed in triplicate. All of the flasks were placed at random inside the growth chamber within each grid and recorded their location. The pH and electrical conductivity of the solutions were also measured after the 7-day growth period.
Significant differences were only observed at the concentration of 15 mg/L of glyphosate for the final number of fronds and the dry weight of plants (FIGS. 41A & 41B). […] Noticeable differences such as the number of plants, lighter colour of fronds, and spindly roots can be visualized in comparison with the control (FIG. 42A) to the presence of 15 mg/L of glyphosate (FIG. 42B).

Lemna minor [2] = assay: Water treatment of commercial pesticide solutions in the EFC followed by Lemna minor growth test; assay type: in vivo
[3] = Electrochemical treatment of chemical standards in batch cell (DSA or BDD anodes); assay type: physicochemical; set-up: reduction of compound in solution: concentration or dose not given beside the values; conditions: for NPOC decrease / TN decrease: 2.27 mA/cm^2, up to 6-minute contact time, batch cell, 20 mg/L chloride
Procedure: Initial water treatment was performed by treating the solution by batch cell using the DSA and BDD anodes, as well as stainless steel (SS) cathodes. The experiment used a 2 L beaker and filled the beaker with 1.8 L of deionized water and dissolved the chemical standards glyphosate (45521, Sigma-Aldrich, USA) or paclobutrazol (46046, Sigma-Aldrich, USA) for separate treatments. The solution was constantly mixed using a magnetic stirrer (220T, Fisher Scientific, Canada) and bar during treatment with chemical standards. Samples containing glyphosate and paclobutrazol standards were submitted to the Agriculture and Food Laboratory (University of Guelph) to quantify samples using LC-MS/MS. The mean quantifiable limit for the analytical method was 8 μg/L for glyphosate, AMPA, and paclobutrazol. The non-purgeable organic carbon (NPOC) and total nitrogen (TN) of the solution were determined using a Shimadzu TOC-Vpn & TNM-1 analyzer. A calibration curve (R^2=0.99) was produced before performing the sample analysis using TOC and TN standards.
The degradation of both glyphosate (8.5 mg/L) and paclobutrazol (12 mg/L) was conducted with the use of electrochemical systems for a direct comparison on their efficacies in a batch cell configuration. […] The NPOC and TN had larger decreases between the 3 and 6-minute contact time with the DSA electrodes for glyphosate, while the changes were more subtle using BDD electrodes.

[4] = BDD electrodes, 2.27 mA/cm^2, 6-minute contact time, LC-MS/MS
[5] = DSA electrodes, 2.27 mA/cm^2, 6-minute contact time, LC-MS/MS

SMILES	EC50 (Lemna minor [1]; Lemna minor, 7 days in growth chamber, glyphosate as Glyfos, paclobutrazol as Bonzi, drc package) [µg/mL]	LOEC levels (Lemna minor [1]; Lemna minor, in vivo, 7 days) [mg/L]	concentration with significant differences for all measured parameters in the health of Lemna minor (Lemna minor [1]; Lemna minor, in vivo, 7 days) [ng/mL]	effect on plant physiological and reproductive health parameters vs control (Lemna minor [1]; in vivo)	concentration remaining after treatment, inferred from plant growth parameters (Lemna minor [2]; Bonzi, 3 mg/L paclobutrazol, BDD electrodes, recirculated 3 passes, 18 minutes total contact)	reduction of compound in solution [3, 4]	NPOC decrease ([3]; BDD electrodes)	TN decrease ([3]; BDD electrodes)	reduction of compound in solution [3, 5]	NPOC decrease ([3]; DSA electrodes)	TN decrease ([3]; DSA electrodes)	increase of AMPA in glyphosate solution ([3]; BDD electrodes, 2.27 mA/cm^2, 0 to 6-minute contact time) [mg/L]	AMPA concentration after treatment of glyphosate solution ([3]; BDD electrodes, 2.27 mA/cm^2, 6 minutes, increased from 0.009) [mg/L]	concentration with significant differences in final number of fronds and dry weight of plants (Lemna minor [1]; Glyfos, 7 days growth) [ng/mL]	EC50 (Lemna minor [1]; Lemna minor) [µg/mL]	concentration remaining after treatment, inferred from plant growth (Lemna minor [2]; Roundup, 7 mg/L glyphosate, DSA electrodes, 2.27 mA/cm^2, 1-minute contact time)	NPOC decrease ([3]; BDD electrodes, listed as Glyphosate) [%]	level remaining in solution after treatment (below detection limit) [3, 5] [ng/mL]
CC(C)(C)[C@@H](O)[C@@H](Cc1ccc(Cl)cc1)n1cncn1 (racemic) [paclobutrazol]	0.01 (≈ 0.034 µM)	0.01	50	Significant decreases were observed for all tested concentrations	lower than 0.05 mg/L	80.94% and 81%	18.41% and 18%	22.58% and 23%	28.29% and 28%	unaffected; also recorded: no significant effect	7.12% and 7%	–	–	–	–	–	–	–
NCP(=O)(O)O [AMPA, aminomethylphosphonic acid]	–	–	–	–	–	–	–	–	–	–	–	0.10	0.11	–	–	–	–	–
O=C(O)CNCP(=O)(O)O [glyphosate, N-(phosphonomethyl)glycine]	–	–	–	–	–	72.47% and 72%	19.73%	32.61% and 32%	–	16.18% and 16%	85.97% and 86%	–	–	15000	~9 (≈ 53.2 µM)	lower than 2.5 mg/L	20	< 8
